Measurements as given in publication PMC12055592, “Post-symptomatic NLRP3 inhibition rescues cognitive impairment and mitigates amyloid and tau driven neurodegeneration” (Npj Dementia, 2025).

Columns and labels:
Assay type in all cases: cell-based
[1] = system: NLRP3 inflammasome, IL-1β in iPSC-derived microglia; assay: iPSC-derived microglia in vitro assay, secreted IL-1β; conditions: for IC50: Microglia, geometric mean, n = 5
Description: (§1) iPSC-derived microglia (BX-0900, BrainXell, Madison, WI) were thawed and recovered as per the supplier’s instructions. Briefly, viable cells were counted post-thaw using Trypan Blue, 0.4% (Thermo Fisher Scientific) and 25,000 cells were seeded on poly-d-lysine coated 96-well plates in DMEM-F/12 medium (Thermo Fisher Scientific) supplemented with 1X B-27 supplement (Thermo Fisher Scientific), 1X N-2 supplement (Thermo Fisher Scientific), 1X Non-essential amino acids (Thermo Fisher Scientific), 1X Chemically defined lipid mix (Thermo Fisher Scientific), 1 mM GlutaMax (Thermo Fisher Scientific), 0.2 mM Ascorbic Acid (Millipore), 100 ng/mL IL-34 (PeproTech, Cranbury, NJ), 2 ng/mL TGF-β1 (PeproTech) and 20 ng/mL M-CSF (PeproTech). Fresh media was added 3 days after seeding, half of which was replenished with fresh media 6 days following seeding. The assay was performed 7 days after cells were seeded in 96-well plates. Two assay protocol variations were performed: cells were either pre-treated with VEN-02XX to block NLRP3 inflammasome formation and then primed with LPS (Fig. 1, D. Compound added before LPS priming) or were primed with LPS and then treated with VEN-02XX (Fig. 1, D. Compound added after LPS priming). For compound treatment, cells were treated with VEN-02XX for 1 h (top concentration 100 µM; 3-fold titration) to block NLRP3 inflammasome formation. For LPS priming, cells were primed with 100 ng/mL LPS (E.coli O26:B6, Millipore) for 4 h. At the end of either protocol, cells were stimulated with 10 uM Nigericin (Millipore) for 1 h, after which conditioned media was collected for analysis of secreted IL-1β, IL-18 and TNFα in an electrochemiluminescence immunoassay (Mesoscale Discovery).

[2] = system: NLRP3 inflammasome, IL-18 in iPSC-derived microglia; assay: iPSC-derived microglia in vitro assay, secreted IL-18; conditions: geometric mean, n = 5
Description: as §1, with “For LPS priming, cells were primed with 100 ng/mL LPS (E.coli O26:B6, Millipore) for 4 h. At the end of either protocol, cells were stimulated with 10 uM Nigericin (Millipore) for 1 h, after which conditioned media was collected for analysis of secreted IL-1β, IL-18 and TNFα in an electrochemiluminescence immunoassay (Mesoscale Discovery).” left out

[3] = system: NLRP3 inflammasome, IL-1β release in mouse whole blood; assay: Mouse whole-blood in vitro assay (LPS, ATP, secreted IL-1β)
Description: Blood was collected from CD1 female mice in lithium-Heparin tubes (Sarstedt, Numbrecht, Germany). Freshly collected blood was distributed in each well of a 96-well round-bottom cell culture plate (Corning Life Sciences, Tewksbury, MA). Blood was primed with 1 µg/ml Lipopolysaccharide (LPS) (E. coli O26:B6, Millipore, Burlington, MA) for 4.5 h, incubated at 37 °C with 5% CO2. Following LPS priming, blood was incubated with VEN-02XX pre-diluted in HBSS (Thermo Fisher Scientific, Waltham, MA) with 2% DMSO, for 30 min (top concentration 25 µM; 3-fold titration). Following drug incubation, blood was stimulated with 5 mM ATP (Millipore) for an additional 30 min at 37 °C with 5% CO2 under continuous shaking (450 RPM), after which conditioned media was collected for analysis of secreted IL-1β in an electrochemiluminescence immunoassay (Mesoscale Discovery).

[4] = system: AIM2; assay: AIM2 in vitro selectivity assay (THP1-KO-NLRP3 cells, Poly(dA:dT), IL-1β); conditions: n = 2; top concentration 50 µM
Description: THP1-KO-NLRP3 cells (Invivogen, San Diego, CA), resuspended in RPMI 1640 (Thermo Fisher Scientific) supplemented with 25 mM HEPES (Thermo Fisher Scientific), 10% FBS (Thermo Fisher Scientific) and 1% Penicillin-Streptomycin (Thermo Fisher Scientific), were seeded at 75,000 cells/well in a 96-well cell culture plate and treated with 50 ng/ml Phorbol 12-myristate 13-acetate (PMA, Millipore) for 24 h at 37 °C with 5% CO2. The next day, the media was replaced with fresh media containing 2.2% FBS, and cells were pretreated for 60 min with VEN-02XX (top concentration 50 µM; 5-fold titration) before DNA transfection. Lipofectamine 2000 (Thermo Fisher Scientific), for a final concentration of 2 µg/ml, and Poly(dA:dT) (Invivogen), for a final concentration of 1 µg/ml, were mixed together in OptiMEM (Thermo Fisher Scientific) 5 min before their addition to the cells. After a 24-h incubation at 37 °C with 5% CO2, supernatants were collected and IL-1β levels determined in an electrochemiluminescence immunoassay (Mesoscale Discovery).

[5] = compound added after LPS priming
[6] = compound added before LPS priming

With `CC(C)(O)CNc1nnc(-c2ccc(Cl)cc2C(F)(F)F)c2ccncc12` [VEN-02XX] as the compound, how does the IC50 [1, 5] read?
The IC50 was 250 nM.

What about the IC50 [1, 6] of the same compound?
Its IC50 is 300 nM.

And the “potency of NLRP3 inhibition in iPSC-derived microglia” value ([1]; in words)?
Its value is “sub-micromolar potency”.

And the IC50 [2, 5]?
The IC50 was 220 nM.

What about the IC50 [2, 6] of the same compound?
Its IC50 is 280 nM.

And the IC50 ([3]; Mus musculus, IL-1β, geometric mean, n = 3)?
The IC50 was 440 nM.

What about the “potency of NLRP3 inhibition in whole blood” value ([3]; in words) of the same compound?
Its value is “sub-micromolar potency”.

And the “block of IL-1β release downstream of AIM2” value [4]?
The value was “inability to block IL-1β release”.
